Measurements taken from article PMC5537066, “Dimerization facilitates the conformational transitions for bacterial phosphotransferase enzyme I autophosphorylation in an allosteric manner” (FEBS Open Bio, 2017).

How the values were obtained:
Experiment in all cases: isothermal titration calorimetry
Type in all cases: binding
Details in all cases: read-out: K D (μS)
EIC (EIC(G356S)) = molecular target: T1, EIC (EIC(G356S)) (Escherichia coli, UniProt P08839, G356S)
T1 construct: gene ptsI; pET11 or pET15b with N-terminal His6 tag; E. coli BL21star(DE3)

EI (EIA, EIA(G356S)) = molecular target: T2, EI (EIA, EIA(G356S)) (Escherichia coli, UniProt P08839, G356S/H189A)
T2 construct: gene ptsI; full length 1-575; pET11 or pET15b with N-terminal His6 tag; E. coli BL21star(DE3); dimer with PEP
Excerpt: isothermal titration calorimetry on EI (EIA, EIA(G356S))

EIA^ΔEINα (G356S) = molecular target: T3, EIA^ΔEINα (G356S) (Escherichia coli, UniProt P08839, DEL22-145/G356S/H189A)
T3 construct: gene ptsI; EI(1-21, 146-575), EINalpha subdomain deleted; pET11 or pET15b with N-terminal His6 tag; E. coli BL21star(DE3)
Excerpt: isothermal titration calorimetry on EIA^ΔEINα (G356S)

C=C(OP(=O)(O)O)C(=O)O [PEP]
Kd (EIC (EIC(G356S))): 310 ± 100 µM
Kd (EI (EIA, EIA(G356S))): 14 ± 0.9 µM
Kd (EIA^ΔEINα (G356S)): 1.3 ± 0.1 µM
